Measurements reported in article PMC11842588, “A first-in-class selective inhibitor of ERK1/2 and ERK5 overcomes drug resistance with a single-molecule strategy” (Signal Transduction and Targeted Therapy, 2025).

What was measured:
Assay in all cases: Kinase profiling
Assay type in all cases: biochemical
[1] = biological target: T1, EphA4(h) (Homo sapiens, UniProt P54764)
T1 construct: purchased Eurofins Cerep SA (KinaseProfiler)
Procedure: (§1) 380 kinases inhibitory activities of SKLB-D18 were conducted by Eurofins Cerep SA. The result was illustrated by kinase tree (http://www.kinhub.org/kinmap/).

[2] = biological target: T2, GCK(h) (Homo sapiens, UniProt Q12851)
T2 construct: purchased Eurofins Cerep SA (KinaseProfiler)
T2 sequence (Q12851 whole entry): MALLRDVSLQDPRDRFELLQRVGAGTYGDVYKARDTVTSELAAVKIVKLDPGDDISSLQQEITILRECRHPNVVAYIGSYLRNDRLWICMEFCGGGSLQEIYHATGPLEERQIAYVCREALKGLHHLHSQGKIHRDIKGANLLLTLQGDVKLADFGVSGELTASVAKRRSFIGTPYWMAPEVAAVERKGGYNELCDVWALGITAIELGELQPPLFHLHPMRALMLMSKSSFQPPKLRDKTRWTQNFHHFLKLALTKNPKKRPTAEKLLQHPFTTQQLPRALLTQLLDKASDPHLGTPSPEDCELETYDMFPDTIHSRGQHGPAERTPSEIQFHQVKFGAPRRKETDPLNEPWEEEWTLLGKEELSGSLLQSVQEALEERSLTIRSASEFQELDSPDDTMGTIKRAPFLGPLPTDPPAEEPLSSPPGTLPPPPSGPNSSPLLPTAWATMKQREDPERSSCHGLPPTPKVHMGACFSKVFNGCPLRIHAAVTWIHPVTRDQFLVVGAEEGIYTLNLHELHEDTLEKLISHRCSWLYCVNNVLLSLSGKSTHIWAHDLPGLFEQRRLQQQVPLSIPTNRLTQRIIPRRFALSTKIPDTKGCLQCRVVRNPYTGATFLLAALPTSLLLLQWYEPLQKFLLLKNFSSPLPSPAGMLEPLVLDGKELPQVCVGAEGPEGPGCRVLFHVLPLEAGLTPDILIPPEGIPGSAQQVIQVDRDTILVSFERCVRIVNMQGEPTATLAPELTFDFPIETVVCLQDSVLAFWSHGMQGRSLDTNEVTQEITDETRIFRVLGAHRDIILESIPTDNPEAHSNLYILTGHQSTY
Procedure: as §1

[3] = biological target: T3, PKCμ(h) (Homo sapiens, UniProt Q15139)
T3 construct: purchased Eurofins Cerep SA (KinaseProfiler)
T3 sequence (Q15139 whole entry): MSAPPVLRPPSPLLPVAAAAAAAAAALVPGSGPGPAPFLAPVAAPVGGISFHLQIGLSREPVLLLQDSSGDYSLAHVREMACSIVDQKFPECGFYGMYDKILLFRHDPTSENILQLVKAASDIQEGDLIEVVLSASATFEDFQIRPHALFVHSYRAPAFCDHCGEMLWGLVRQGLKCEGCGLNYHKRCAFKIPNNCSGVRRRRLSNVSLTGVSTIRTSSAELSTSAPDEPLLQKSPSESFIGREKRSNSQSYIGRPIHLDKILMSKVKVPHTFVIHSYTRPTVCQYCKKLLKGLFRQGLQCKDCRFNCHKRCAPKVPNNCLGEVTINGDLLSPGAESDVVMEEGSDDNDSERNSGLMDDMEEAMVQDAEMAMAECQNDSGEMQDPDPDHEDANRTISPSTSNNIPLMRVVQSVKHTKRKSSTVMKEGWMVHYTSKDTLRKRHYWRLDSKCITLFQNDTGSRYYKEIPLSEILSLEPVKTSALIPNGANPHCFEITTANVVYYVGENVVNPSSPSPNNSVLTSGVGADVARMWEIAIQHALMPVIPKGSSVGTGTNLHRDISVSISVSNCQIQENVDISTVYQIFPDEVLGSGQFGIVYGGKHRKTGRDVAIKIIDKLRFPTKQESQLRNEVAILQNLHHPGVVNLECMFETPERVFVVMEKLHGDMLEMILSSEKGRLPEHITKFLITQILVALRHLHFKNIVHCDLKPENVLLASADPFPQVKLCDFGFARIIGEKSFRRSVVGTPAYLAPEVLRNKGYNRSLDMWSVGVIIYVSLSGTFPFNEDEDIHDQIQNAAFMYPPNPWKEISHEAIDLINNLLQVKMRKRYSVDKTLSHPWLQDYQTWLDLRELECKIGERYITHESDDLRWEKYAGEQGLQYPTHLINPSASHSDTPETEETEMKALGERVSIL
Procedure: as §1

[4] = biological target: T4, ICK(h) (Homo sapiens, UniProt Q9UPZ9)
T4 construct: purchased Eurofins Cerep SA (KinaseProfiler)
Procedure: as §1

[5] = biological target: T5, MARK1(h) (Homo sapiens, UniProt Q9P0L2)
T5 construct: purchased Eurofins Cerep SA (KinaseProfiler)
Procedure: as §1

[6] = biological target: T6, SBK1(h) (Homo sapiens, UniProt Q52WX2)
T6 construct: purchased Eurofins Cerep SA (KinaseProfiler)
Procedure: as §1

[7] = biological target: T7, CDK3/cyclinE(h) (Homo sapiens, UniProt Q00526)
T7 construct: purchased Eurofins Cerep SA (KinaseProfiler)
Procedure: as §1

[8] = biological target: T8, CDKL2(h) (Homo sapiens, UniProt Q92772)
T8 construct: purchased Eurofins Cerep SA (KinaseProfiler)
Procedure: as §1

[9] = biological target: T9, NIM1(h) (Homo sapiens, UniProt Q8IY84)
T9 construct: purchased Eurofins Cerep SA (KinaseProfiler)
Procedure: as §1

[10] = biological target: T10, TSSK2(h) (Homo sapiens, UniProt Q96PF2)
T10 construct: purchased Eurofins Cerep SA (KinaseProfiler)
T10 sequence (Q96PF2 whole entry): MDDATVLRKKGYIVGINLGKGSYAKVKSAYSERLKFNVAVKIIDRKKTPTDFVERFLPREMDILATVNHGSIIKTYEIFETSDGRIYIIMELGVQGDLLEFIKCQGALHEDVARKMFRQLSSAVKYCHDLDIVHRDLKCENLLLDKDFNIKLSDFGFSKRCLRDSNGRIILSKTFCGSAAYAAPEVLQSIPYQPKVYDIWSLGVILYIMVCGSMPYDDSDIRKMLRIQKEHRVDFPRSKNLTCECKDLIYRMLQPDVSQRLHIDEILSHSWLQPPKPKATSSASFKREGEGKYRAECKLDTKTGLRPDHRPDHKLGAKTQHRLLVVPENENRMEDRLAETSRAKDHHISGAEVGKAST
Procedure: as §1

[11] = biological target: T11, Flt4(h) (Homo sapiens, UniProt P35916)
T11 construct: purchased Eurofins Cerep SA (KinaseProfiler)
Procedure: as §1

[12] = biological target: T12, PI3 Kinase (p110a/p85a)(h) (Homo sapiens, UniProt P42336)
T12 construct: purchased Eurofins Cerep SA (KinaseProfiler)
Procedure: as §1

[13] = biological target: T13, EphA7(h) (Homo sapiens, UniProt Q15375)
T13 construct: purchased Eurofins Cerep SA (KinaseProfiler)
T13 sequence (Q15375 28-998): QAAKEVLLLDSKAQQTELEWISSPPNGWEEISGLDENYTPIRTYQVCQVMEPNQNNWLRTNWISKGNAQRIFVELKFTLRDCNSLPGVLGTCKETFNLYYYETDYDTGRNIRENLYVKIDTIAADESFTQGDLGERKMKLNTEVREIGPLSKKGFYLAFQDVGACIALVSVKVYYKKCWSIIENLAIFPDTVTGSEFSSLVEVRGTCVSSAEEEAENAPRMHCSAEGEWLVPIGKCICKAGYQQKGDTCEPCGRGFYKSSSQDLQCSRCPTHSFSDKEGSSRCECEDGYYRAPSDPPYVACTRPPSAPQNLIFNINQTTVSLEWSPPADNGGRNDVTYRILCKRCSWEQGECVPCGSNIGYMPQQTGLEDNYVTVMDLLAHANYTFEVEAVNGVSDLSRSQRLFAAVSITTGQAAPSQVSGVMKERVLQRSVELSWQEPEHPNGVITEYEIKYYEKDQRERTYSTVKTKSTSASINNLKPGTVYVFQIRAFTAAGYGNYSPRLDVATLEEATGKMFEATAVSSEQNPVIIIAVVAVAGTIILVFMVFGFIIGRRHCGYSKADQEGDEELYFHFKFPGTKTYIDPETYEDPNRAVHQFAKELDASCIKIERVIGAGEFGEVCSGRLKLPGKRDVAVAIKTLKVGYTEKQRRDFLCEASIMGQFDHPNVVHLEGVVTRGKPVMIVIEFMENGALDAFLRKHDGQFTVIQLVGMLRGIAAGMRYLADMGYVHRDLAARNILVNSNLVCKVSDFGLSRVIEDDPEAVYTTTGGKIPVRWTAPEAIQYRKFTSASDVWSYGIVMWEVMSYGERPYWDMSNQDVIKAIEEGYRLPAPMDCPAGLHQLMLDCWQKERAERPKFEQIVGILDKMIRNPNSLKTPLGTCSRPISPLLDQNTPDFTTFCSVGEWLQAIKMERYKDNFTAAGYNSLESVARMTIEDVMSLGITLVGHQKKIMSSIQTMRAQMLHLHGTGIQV
Procedure: as §1

[14] = biological target: T14, TAK1(h) (Homo sapiens, UniProt O43318)
T14 construct: purchased Eurofins Cerep SA (KinaseProfiler)
Procedure: as §1

[15] = biological target: T15, DDR1(h) (Homo sapiens, UniProt Q08345)
T15 construct: purchased Eurofins Cerep SA (KinaseProfiler)
T15 sequence (Q08345 19-913): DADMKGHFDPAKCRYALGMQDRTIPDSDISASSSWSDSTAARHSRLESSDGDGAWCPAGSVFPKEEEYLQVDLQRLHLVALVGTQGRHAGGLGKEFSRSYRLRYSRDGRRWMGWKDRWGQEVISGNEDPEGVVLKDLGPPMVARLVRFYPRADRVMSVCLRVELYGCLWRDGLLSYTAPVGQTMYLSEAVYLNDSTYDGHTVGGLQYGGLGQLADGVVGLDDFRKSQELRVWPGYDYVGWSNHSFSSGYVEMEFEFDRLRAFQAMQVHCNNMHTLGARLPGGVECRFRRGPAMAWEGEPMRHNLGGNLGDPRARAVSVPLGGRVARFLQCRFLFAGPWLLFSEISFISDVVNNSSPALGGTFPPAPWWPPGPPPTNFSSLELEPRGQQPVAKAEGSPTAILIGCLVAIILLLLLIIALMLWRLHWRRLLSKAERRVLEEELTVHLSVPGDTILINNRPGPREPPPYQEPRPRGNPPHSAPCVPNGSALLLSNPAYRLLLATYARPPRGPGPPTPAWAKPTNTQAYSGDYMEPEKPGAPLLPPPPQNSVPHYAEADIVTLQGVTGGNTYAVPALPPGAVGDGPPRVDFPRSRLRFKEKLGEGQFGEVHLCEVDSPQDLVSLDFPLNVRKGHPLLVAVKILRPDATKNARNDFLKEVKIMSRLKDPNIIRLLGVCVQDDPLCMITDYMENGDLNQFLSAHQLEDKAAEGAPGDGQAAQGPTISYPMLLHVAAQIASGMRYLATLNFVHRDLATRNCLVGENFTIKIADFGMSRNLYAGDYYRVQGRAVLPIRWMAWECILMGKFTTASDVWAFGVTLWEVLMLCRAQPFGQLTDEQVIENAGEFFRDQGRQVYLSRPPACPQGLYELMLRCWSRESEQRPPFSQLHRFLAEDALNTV
Procedure: as §1

[16] = biological target: T16, LIMK2(h) (Homo sapiens, UniProt P53671)
T16 construct: purchased Eurofins Cerep SA (KinaseProfiler)
Procedure: as §1

[17] = biological target: T17, PKAcβ(h) (Homo sapiens, UniProt P22694)
T17 construct: purchased Eurofins Cerep SA (KinaseProfiler)
Procedure: as §1

[18] = biological target: T18, CaMKIβ(h) (Homo sapiens, UniProt Q6P2M8)
T18 construct: purchased Eurofins Cerep SA (KinaseProfiler)
Procedure: as §1

[19] = biological target: T19, MAPK7(h) (Homo sapiens, UniProt Q13164)
T19 construct: purchased Eurofins Cerep SA (KinaseProfiler)
Procedure: as §1

[20] = biological target: T20, PKR(h) (Homo sapiens, UniProt P19525)
T20 construct: purchased Eurofins Cerep SA (KinaseProfiler)
Procedure: as §1

[21] = biological target: T21, NEK7(h) (Homo sapiens, UniProt Q8TDX7)
T21 construct: purchased Eurofins Cerep SA (KinaseProfiler)
T21 sequence (Q8TDX7 whole entry): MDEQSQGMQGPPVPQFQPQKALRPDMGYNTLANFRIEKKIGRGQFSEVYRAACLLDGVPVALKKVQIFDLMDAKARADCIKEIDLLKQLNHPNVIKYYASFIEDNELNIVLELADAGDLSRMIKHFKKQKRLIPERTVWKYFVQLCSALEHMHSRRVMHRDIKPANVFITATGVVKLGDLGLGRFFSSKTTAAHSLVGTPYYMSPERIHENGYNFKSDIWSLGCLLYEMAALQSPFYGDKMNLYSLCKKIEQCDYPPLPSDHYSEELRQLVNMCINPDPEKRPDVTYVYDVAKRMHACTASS
Procedure: as §1

[22] = biological target: T22, Wee1(h) (Homo sapiens, UniProt P30291)
T22 construct: purchased Eurofins Cerep SA (KinaseProfiler)
Procedure: as §1

[23] = biological target: T23, Yes(h) (Homo sapiens, UniProt P07947)
T23 construct: purchased Eurofins Cerep SA (KinaseProfiler)
Procedure: as §1

[24] = biological target: T24, MST3(h) (Homo sapiens, UniProt Q9Y6E0)
T24 construct: purchased Eurofins Cerep SA (KinaseProfiler)
Procedure: as §1

[25] = biological target: T25, Hck(h) activated (Homo sapiens, UniProt P08631)
T25 construct: purchased Eurofins Cerep SA (KinaseProfiler)
Procedure: as §1

[26] = biological target: T26, TTBK1(h) (Homo sapiens, UniProt Q5TCY1)
T26 construct: purchased Eurofins Cerep SA (KinaseProfiler)
Procedure: as §1

[27] = biological target: T27, CaMKIγ(h) (Homo sapiens, UniProt Q96NX5)
T27 construct: purchased Eurofins Cerep SA (KinaseProfiler)
Procedure: as §1

[28] = biological target: T28, TRB2(h) (Homo sapiens, UniProt Q92519)
T28 construct: purchased Eurofins Cerep SA (KinaseProfiler)
Procedure: as §1

[29] = biological target: T29, CDK1/cyclinB(h) (Homo sapiens, UniProt P06493)
T29 construct: purchased Eurofins Cerep SA (KinaseProfiler)
Procedure: as §1

[30] = biological target: T30, PIP5K1g(h) (Homo sapiens, UniProt O60331)
T30 construct: purchased Eurofins Cerep SA (KinaseProfiler)
Procedure: as §1

[31] = biological target: T31, Hck(h) (Homo sapiens, UniProt P08631)
T31 construct: purchased Eurofins Cerep SA (KinaseProfiler)
Procedure: as §1

[32] = biological target: T32, BTK(h) (Homo sapiens, UniProt Q06187)
T32 construct: purchased Eurofins Cerep SA (KinaseProfiler)
Procedure: as §1

[33] = biological target: T33, LOK(h) (Homo sapiens, UniProt O94804)
T33 construct: purchased Eurofins Cerep SA (KinaseProfiler)
Procedure: as §1

[34] = biological target: T34, PhKγ1(h) (Homo sapiens, UniProt Q16816)
T34 construct: purchased Eurofins Cerep SA (KinaseProfiler)
Procedure: as §1

[35] = biological target: T35, WNK2(h) (Homo sapiens, UniProt Q9Y3S1)
T35 construct: purchased Eurofins Cerep SA (KinaseProfiler)
Procedure: as §1

[36] = biological target: T36, TrkB(h) (Homo sapiens, UniProt Q16620)
T36 construct: purchased Eurofins Cerep SA (KinaseProfiler)
T36 sequence (Q16620 32-822): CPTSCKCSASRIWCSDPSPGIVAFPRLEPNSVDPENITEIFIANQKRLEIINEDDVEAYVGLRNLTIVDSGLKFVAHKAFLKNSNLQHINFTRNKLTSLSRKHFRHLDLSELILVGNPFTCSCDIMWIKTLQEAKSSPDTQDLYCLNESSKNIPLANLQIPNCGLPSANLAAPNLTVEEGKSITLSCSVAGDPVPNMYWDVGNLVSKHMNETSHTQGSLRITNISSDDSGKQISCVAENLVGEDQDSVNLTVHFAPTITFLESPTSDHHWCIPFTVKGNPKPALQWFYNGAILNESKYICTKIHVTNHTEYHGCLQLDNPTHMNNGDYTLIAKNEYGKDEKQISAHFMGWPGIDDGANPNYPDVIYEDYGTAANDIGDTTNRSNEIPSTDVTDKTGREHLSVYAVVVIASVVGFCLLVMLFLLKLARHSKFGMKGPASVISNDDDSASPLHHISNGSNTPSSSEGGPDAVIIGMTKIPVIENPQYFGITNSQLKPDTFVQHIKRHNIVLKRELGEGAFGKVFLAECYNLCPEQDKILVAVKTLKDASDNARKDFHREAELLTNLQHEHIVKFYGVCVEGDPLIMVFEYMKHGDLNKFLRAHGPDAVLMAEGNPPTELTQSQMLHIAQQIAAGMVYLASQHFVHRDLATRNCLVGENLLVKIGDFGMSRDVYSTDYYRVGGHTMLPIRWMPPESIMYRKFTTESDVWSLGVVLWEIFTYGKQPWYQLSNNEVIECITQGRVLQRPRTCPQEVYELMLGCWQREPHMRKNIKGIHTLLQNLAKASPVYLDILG
Procedure: as §1

[37] = biological target: T37, PDHK2(h) (Homo sapiens, UniProt Q15119)
T37 construct: purchased Eurofins Cerep SA (KinaseProfiler)
Procedure: as §1

[38] = biological target: T38, PrKX(h) (Homo sapiens, UniProt P51817)
T38 construct: purchased Eurofins Cerep SA (KinaseProfiler)
Procedure: as §1

[39] = biological target: T39, PKBγ(h) (Homo sapiens, UniProt Q9Y243)
T39 construct: purchased Eurofins Cerep SA (KinaseProfiler)
Procedure: as §1

[40] = biological target: T40, MSK2(h) (Homo sapiens, UniProt O75676)
T40 construct: purchased Eurofins Cerep SA (KinaseProfiler)
Procedure: as §1

[41] = biological target: T41, CDK18/cyclinY(h) (Homo sapiens, UniProt Q07002)
T41 construct: purchased Eurofins Cerep SA (KinaseProfiler)
Procedure: as §1

## CN(C)Cc1cccc(Nc2ncc(Cl)c(-c3csc(C(=O)NN4CCOCC4)c3)n2)c1 [SKLB-D18, 4-(5-chloro-2-((3-((dimethylamino)methyl)phenyl)amino)pyrimidin-4-yl)-N-morpholinothiophene-2-carboxamide]
[1]
  inhibition at 1 µM: 6%
[2]
  inhibition at 1 µM: 57%
[3]
  inhibition at 1 µM: 64%
[4]
  inhibition at 1 µM: 20%
[5]
  inhibition at 1 µM: 64%
[6]
  inhibition at 1 µM: 55%
[7]
  inhibition at 1 µM: 16%
[8]
  inhibition at 1 µM: 39%
[9]
  inhibition at 1 µM: 50%
[10]
  inhibition at 1 µM: -2%
[11]
  inhibition at 1 µM: 63%
[12]
  inhibition at 1 µM: -2%
[13]
  inhibition at 1 µM: 38%
[14]
  inhibition at 1 µM: 64%
[15]
  inhibition at 1 µM: 35%
[16]
  inhibition at 1 µM: 17%
[17]
  inhibition at 1 µM: 12%
[18]
  inhibition at 1 µM: 1%
[19]
  inhibition at 1 µM: 93%
[20]
  inhibition at 1 µM: 26%
[21]
  inhibition at 1 µM: -2%
[22]
  inhibition at 1 µM: 48%
[23]
  inhibition at 1 µM: 65%
[24]
  inhibition at 1 µM: 19%
[25]
  inhibition at 1 µM: 32%
[26]
  inhibition at 1 µM: -5%
[27]
  inhibition at 1 µM: 12%
[28]
  inhibition at 1 µM: 71%
[29]
  inhibition at 1 µM: 44%
[30]
  inhibition at 1 µM: -4%
[31]
  inhibition at 1 µM: 20%
[32]
  inhibition at 1 µM: 8%
[33]
  inhibition at 1 µM: 2%
[34]
  inhibition at 1 µM: 63%
[35]
  inhibition at 1 µM: 24%
[36]
  inhibition at 1 µM: 46%
[37]
  inhibition at 1 µM: 14%
[38]
  inhibition at 1 µM: 43%
[39]
  inhibition at 1 µM: 14%
[40]
  inhibition at 1 µM: 16%
[41]
  inhibition at 1 µM: 48%
